Legend:
[1] = target: T1, human muscarinic M4 receptor (Homo sapiens, UniProt P08173); test: Alphascreen Surefire phospho-ERK1/2 functional assay, M4; format: cell-based; details: for EC50 / % Emax cf. ACh, M4: CHO cells stably expressing human M4; for EC50: phospho-ERK1/2, * = variable results, read-out: pEC50 M4 (converted); for % Emax cf. ACh, M4 / Emax: relative to ACh; for Emax: CHO, read-out: % Emax cf. ACh, M4, CHO cells stably expressing human M4
T1 construct: expressed in transfected cells
T1 sequence (P08173 1-479): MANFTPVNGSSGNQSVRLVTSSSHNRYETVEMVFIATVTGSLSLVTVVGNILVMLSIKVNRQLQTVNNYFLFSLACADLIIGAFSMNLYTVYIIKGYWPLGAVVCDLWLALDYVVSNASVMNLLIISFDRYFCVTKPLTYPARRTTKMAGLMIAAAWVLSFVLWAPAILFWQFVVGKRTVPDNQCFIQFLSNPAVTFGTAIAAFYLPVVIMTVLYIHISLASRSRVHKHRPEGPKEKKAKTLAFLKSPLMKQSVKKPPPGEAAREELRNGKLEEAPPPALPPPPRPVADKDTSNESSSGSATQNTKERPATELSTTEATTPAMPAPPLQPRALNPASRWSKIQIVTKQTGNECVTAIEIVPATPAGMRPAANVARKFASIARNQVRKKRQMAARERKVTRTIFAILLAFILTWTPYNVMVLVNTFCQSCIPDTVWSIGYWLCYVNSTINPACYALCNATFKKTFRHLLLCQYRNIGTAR

[2] = target: human muscarinic M3 receptor (Homo sapiens, UniProt P20309); test: Alphascreen Surefire phospho-ERK1/2 functional assay, M3; details: for Emax: CHO, read-out: % Emax cf. ACh, M3, CHO cells stably expressing human M3; for Emax / % Emax cf. ACh, M3: relative to ACh; for EC50: pEC50 M3, CHO cells stably expressing human M3; for EC50 / pEC50 M3: phospho-ERK1/2, * = variable results; for pEC50 M3 / % Emax cf. ACh, M3: CHO cells stably expressing human M3
[3] = target: T2, human muscarinic M2 receptor (Homo sapiens, UniProt P08172); test: Alphascreen Surefire phospho-ERK1/2 functional assay, M2; details: for Emax: CHO, read-out: % Emax cf. ACh, M2, CHO cells stably expressing human M2; for Emax / % Emax cf. ACh, M2: relative to ACh; for pEC50 M2 / % Emax cf. ACh, M2: CHO cells stably expressing human M2; for pEC50 M2: phospho-ERK1/2, * = variable results
T2 sequence (P08172 1-466): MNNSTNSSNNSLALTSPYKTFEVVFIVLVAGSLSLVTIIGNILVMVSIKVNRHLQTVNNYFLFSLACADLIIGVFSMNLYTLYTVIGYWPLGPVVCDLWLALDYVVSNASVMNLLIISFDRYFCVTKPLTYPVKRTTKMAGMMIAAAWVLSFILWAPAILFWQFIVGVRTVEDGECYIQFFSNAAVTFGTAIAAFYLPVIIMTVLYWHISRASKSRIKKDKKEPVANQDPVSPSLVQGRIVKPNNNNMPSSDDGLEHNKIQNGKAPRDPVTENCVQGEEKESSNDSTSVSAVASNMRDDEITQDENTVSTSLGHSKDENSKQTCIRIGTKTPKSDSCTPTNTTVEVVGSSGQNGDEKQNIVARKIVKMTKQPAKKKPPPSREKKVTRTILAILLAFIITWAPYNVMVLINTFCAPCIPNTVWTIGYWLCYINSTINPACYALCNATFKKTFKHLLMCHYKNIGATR

[4] = target: T3, human muscarinic M1 receptor (Homo sapiens, UniProt P11229); test: Alphascreen Surefire phospho-ERK1/2 functional assay, M1; format: cell-based; details: for EC50 / % Emax cf. ACh, M1: CHO cells stably expressing human M1; for EC50: phospho-ERK1/2, * = variable results, read-out: pEC50 M1 (converted); for % Emax cf. ACh, M1 / Emax: relative to ACh; for Emax: CHO, read-out: % Emax cf. ACh, M1, CHO cells stably expressing human M1
T3 sequence (P11229 1-460): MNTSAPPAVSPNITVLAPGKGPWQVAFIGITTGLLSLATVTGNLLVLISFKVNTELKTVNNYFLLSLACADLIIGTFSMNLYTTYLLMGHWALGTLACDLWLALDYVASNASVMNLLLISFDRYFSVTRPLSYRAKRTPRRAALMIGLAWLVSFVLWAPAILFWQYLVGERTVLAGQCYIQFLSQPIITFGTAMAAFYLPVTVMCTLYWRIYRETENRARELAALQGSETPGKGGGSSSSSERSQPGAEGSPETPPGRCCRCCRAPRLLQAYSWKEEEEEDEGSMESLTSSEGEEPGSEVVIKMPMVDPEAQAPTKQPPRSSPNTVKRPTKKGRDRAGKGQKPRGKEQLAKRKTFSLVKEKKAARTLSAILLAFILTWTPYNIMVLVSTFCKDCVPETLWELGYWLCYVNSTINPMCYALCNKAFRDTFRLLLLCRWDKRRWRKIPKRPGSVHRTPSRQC

Sequence of human muscarinic M3 receptor (P20309 whole entry): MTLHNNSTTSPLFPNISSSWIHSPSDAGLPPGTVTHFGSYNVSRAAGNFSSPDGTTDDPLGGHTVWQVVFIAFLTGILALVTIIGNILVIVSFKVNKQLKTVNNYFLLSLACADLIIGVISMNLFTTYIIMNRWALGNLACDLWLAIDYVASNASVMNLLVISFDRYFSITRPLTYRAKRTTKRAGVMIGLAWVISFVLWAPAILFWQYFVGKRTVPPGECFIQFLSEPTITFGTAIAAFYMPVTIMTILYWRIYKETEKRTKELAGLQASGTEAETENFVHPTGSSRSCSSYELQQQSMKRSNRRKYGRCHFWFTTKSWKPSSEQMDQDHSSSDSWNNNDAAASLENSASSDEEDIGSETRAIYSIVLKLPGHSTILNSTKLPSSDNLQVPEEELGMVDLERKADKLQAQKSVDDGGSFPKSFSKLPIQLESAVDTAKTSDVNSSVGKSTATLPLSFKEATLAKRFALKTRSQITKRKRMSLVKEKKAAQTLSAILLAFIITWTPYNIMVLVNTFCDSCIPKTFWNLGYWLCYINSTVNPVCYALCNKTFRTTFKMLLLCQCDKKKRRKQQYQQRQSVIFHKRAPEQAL

Row | EC50 [1] [nM] | % Emax cf. ACh, M4 [1] [%] | Emax [2] [%] | EC50 [2] [nM] | EC50 [3] [nM] | Emax [3] [%] | EC50 [4] [nM] | % Emax cf. ACh, M1 [4] [%] | Emax [1] [%] | Emax [4] [%] | pEC50 M3 [2] | % Emax cf. ACh, M3 [2] [%] | pEC50 M2 [3] | % Emax cf. ACh, M2 [3] [%] | SMILES
1 | 50.1 | 68 | 5 | > 20000 | > 20000 | 3 | 398 | 58 |  |  |  |  |  |  | CCOC(=O)N1CCC2(CC(N3CCC(C4CCCNC4=O)CC3)C2)C1 (single isomer, unassigned) [4-1 Isomer 4, ethyl 2-(2-oxo-3,4′-bipiperidin-1′-yl)-6-azaspiro[3.4]octane-6-carboxylate]
2 | 39.8 |  | 3 | > 20000 | > 20000 | 3 | > 20000 |  | 37 | 5 |  |  |  |  | CCOC(=O)N1CCC2(CC(N3CCC(N4CSC[C@@H]4C(=O)OC)CC3)C2)C1 (single isomer, unassigned) [2-97 Isomer 2]
3 | 20 |  | 0 | > 20000 | > 20000 | 55 | 200 |  | 48 | 28 |  |  |  |  | CCOC(=O)N1CCC2(CC(N3CCC(N4CCC(F)(F)CC4)CC3)C2)C1 (single isomer, unassigned) [4-14 Isomer 2, ethyl 2-(4,4-difluoro-1,4′-bipiperidin-1′-yl)-6-azaspiro[3.4]octane-6-carboxylate]
4 | 6.31 |  | 47 | > 20000 | > 20000 | 14 | 251 |  | 105 | 51 |  |  |  |  | CCOC(=O)N1CCC2(CC(N3CCC([C@@H]4CCCN4c4ccccc4)CC3)C2)C1 (single isomer, unassigned) [2-77 Isomer 2]
5 | 50.1 |  | 3 | > 20000 | > 20000 | 2 | 316 |  | 110 | 102 |  |  |  |  | CCOC(=O)N1CCC2(CC(N3CCC(C4CCCN4C(=O)C(F)(F)F)CC3)C2)C1 (single isomer, unassigned) [2-4 Isomer 2, ethyl 2-{4-[1-(trifluoroacetyl)pyrrolidin-2-yl]piperidin-1-yl}-6-azaspiro[3.4]octane-6-carboxylate]
6 | 200 |  | 8 | > 20000 | > 20000 | 68 | 6310 |  | 102 | 37 |  |  |  |  | CCOC(=O)N1CCC2(CC(N3CCC(N4CC(F)(F)C[C@@H]4C(=O)N(C)C)CC3)C2)C1 (single isomer, unassigned) [2-89 Isomer 2]
7 | 15.8 |  | 16 | > 20000 | > 20000 | 30 | 3160 |  | 132 | 57 |  |  |  |  | CCOC(=O)N1CCC2(CC(N3CCC(C4CCCN4C(=O)CC)CC3)C2)C1 (single isomer, unassigned) [2-6 Isomer 2, ethyl 2-[4-(1-propanoylpyrrolidin-2-yl)piperidin-1-yl]-6-azaspiro[3.4]octane-6-carboxylate]
8 | 12.6 |  | 2 | > 20000 | > 20000 | 3 | 398 |  | 110 | 87 |  |  |  |  | CCOC(=O)N1CCC2(CC(N3CCC([C@@H]4CCCN4CC(F)(F)F)CC3)C2)C1 (single isomer, unassigned) [2-69 Isomer 2]
9 | 25.1 |  | 22 | > 20000 | > 20000 | 15 | 158 |  | 97 | 97 |  |  |  |  | CCOC(=O)N1CCC2(CC(N3CCC(c4nccn4C)CC3)C2)C1 (single isomer, unassigned) [1-7 Isomer 2, ethyl 2-[4-(1-methyl-1H-imidazol-2-yl)piperidin-1-yl]-6-azaspiro[3.4]octane-6-carboxylate]
10 | 126 |  | 3 | > 20000 | > 20000 | 0 | 1000 |  | 89 | 30 |  |  |  |  | CCOC(=O)N1CCC2(CC(N3CCC(c4nn(C)cc4C)CC3)C2)C1 (single isomer, unassigned) [1-56 Isomer 2, ethyl 2-[4-(1,4-dimethyl-1H-pyrazol-3-yl)piperidin-1-yl]-6-azaspiro[3.4]octane-6-carboxylate]
11 | 63.1 |  | 9 | > 20000 | > 20000 | 16 | > 20000 |  | 49 | 19 |  |  |  |  | CCOC(=O)N1CCC2(CC(N3CCC(N4CCC[C@]4(C)C(=O)OC)CC3)C2)C1 (single isomer, unassigned) [2-95 Isomer 2]
12 | 251 | 58 |  |  |  |  | 3160 | 56 |  |  | < 4.7 | 39 | < 4.7 | 3 | CCOC(=O)N1CCC2(CC(N3CCC([C@@H]4CCCN4C(=O)N(C)OC)CC3)C2)C1 (single isomer, unassigned) [2-34 Isomer 2]
13 | 20 |  | 1 | > 20000 | > 20000 | 67 | > 20000 |  | 79 | 19 |  |  |  |  | CCOC(=O)N1CCC2(CC(N3CCC([C@@H]4CCCN4C(=O)OCCNC)CC3)C2)C1 (single isomer, unassigned) [2-67 Isomer 2]
14 | 79.4 |  | 10 | > 20000 | > 20000 | 12 | 501 |  | 67 | 40 |  |  |  |  | CCOC(=O)N1CCC2(CC(N3CCC(N4CC(F)(F)C[C@@H]4C(=O)NOC)CC3)C2)C1 (single isomer, unassigned) [2-91 Isomer 2]
15 | 2.51 | 117 |  |  |  |  | 7.94 | 130 |  |  | < 4.7 | 0 | < 4.7 | 43 | CCOC(=O)N1CCC2(CC(N3CCC(n4cc(C)cn4)CC3)C2)C1 (single isomer, unassigned) [1-34 Isomer 2, ethyl 2-[4-(4-methyl-1H-pyrazol-1-yl)piperidin-1-yl]-6-azaspiro[3.4]octane-6-carboxylate]
16 | 79.4 |  | 9 | > 20000 | > 20000 | 21 | 6310 |  | 92 | 71 |  |  |  |  | CCCn1nccc1C1CCN(C2CC3(CCN(C(=O)OCC)C3)C2)CC1 (single isomer, unassigned) [1-49 Isomer 2, ethyl 2-[4-(1-propyl-1H-pyrazol-5-yl)piperidin-1-yl]-6-azaspiro[3.4]octane-6-carboxylate]
